The text below walks through data of patent US10689378B2, “Triazolopyridine compounds and uses thereof” (Novartis AG, priority 2016, dated 2020).

What is called IC50 is the midpoint of a concentration-inhibition curve.

Test [1] concerns the target T1, EED (1-441)-His protein (Homo sapiens, UniProt O75530).
T1 construct: 30 nM EED (1-441)-His protein
The test can be described thus: EED-H3K27Me3 peptide competition binding assay by AlphaScreen. The note with it: EED-H3K27Me3 peptide competition, AlphaScreen; read-out: (a) IC50 EED Alphascreen binding Qualified. Summed up: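 Serially diluted compound (12 points, 3-fold) incubated 20 min with 30 nM EED(1-441)-His and 15 nM biotin-H3K27Me3(19-33) peptide in 25 mM HEPES pH 8, 0.02% Tween-20, 0.5% BSA. Ni-chelate acceptor/streptavidin donor beads (10 μg/mL each) added, 1 h rt dark; 615 nm emission normalized to controls, dose-response fit for IC50.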
(In general: Alpha assays give light when donor and acceptor beads are brought close together.)

Test [2] has as its target wild type PRC2 (wtPRC2) complex (Homo sapiens, UniProt O75530). The test can be described thus: EED LC-MS assay (SAH production by PRC2). In kind it is biochemical. Particulars: PRC2 LC-MS assay; read-out: (b) IC50 EED LC-MS Qualified. Summed up:
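Pentameric PRC2 (EZH2, SUZ12, EED, Rbap48, AEBP), 12 nM final, preincubated 20 min with compound and SAM, then 1.5 μM biotinylated H3K27me0 peptide, 1 μM SAM, pH 8.0, 120 min at rt. SAH quantified by LC-MS/MS with d4-SAH; control-normalized activity fitted for IC50.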

The subject of test [3] is H3K27 methylation in G401 cell. The test can be described thus: ELISA (H3K27 methylation) assay in G401 cells. In kind it is cell-based, human. Particulars: Homo sapiens, G-401, H3K27 methylation ELISA, read-out: (c) IC50 ELISA Qualified. In a few lines: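 G401 cells treated 48 h with 3-fold dilutions (8 or 12 points, top 20 μM). Acid-extracted histones probed by ELISA for H3K27me3 or H3K27me2 with ECL readout, normalized to total H3. Percent inhibition versus DMSO fitted to dose-response curve for IC50.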
For orientation: In an ELISA, binding on a coated surface is turned into a signal by an enzyme label.

T1 sequence (O75530 whole entry): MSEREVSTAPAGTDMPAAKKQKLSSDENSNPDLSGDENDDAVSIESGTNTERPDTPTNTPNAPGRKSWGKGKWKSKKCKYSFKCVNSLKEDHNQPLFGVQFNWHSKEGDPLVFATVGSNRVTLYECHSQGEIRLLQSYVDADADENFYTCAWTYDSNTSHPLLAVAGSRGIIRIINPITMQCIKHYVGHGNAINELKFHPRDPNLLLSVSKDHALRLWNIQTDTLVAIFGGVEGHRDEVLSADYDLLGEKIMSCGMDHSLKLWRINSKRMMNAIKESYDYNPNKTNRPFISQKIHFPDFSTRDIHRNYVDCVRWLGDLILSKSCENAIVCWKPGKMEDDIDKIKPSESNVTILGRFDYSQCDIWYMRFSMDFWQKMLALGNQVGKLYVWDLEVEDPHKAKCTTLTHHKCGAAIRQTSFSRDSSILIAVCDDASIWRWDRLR
Sequence of wild type PRC2 (wtPRC2) complex (O75530 whole entry): as above
Sequence of wild type PRC2 (wtPRC2) complex (Q15910 whole entry partner): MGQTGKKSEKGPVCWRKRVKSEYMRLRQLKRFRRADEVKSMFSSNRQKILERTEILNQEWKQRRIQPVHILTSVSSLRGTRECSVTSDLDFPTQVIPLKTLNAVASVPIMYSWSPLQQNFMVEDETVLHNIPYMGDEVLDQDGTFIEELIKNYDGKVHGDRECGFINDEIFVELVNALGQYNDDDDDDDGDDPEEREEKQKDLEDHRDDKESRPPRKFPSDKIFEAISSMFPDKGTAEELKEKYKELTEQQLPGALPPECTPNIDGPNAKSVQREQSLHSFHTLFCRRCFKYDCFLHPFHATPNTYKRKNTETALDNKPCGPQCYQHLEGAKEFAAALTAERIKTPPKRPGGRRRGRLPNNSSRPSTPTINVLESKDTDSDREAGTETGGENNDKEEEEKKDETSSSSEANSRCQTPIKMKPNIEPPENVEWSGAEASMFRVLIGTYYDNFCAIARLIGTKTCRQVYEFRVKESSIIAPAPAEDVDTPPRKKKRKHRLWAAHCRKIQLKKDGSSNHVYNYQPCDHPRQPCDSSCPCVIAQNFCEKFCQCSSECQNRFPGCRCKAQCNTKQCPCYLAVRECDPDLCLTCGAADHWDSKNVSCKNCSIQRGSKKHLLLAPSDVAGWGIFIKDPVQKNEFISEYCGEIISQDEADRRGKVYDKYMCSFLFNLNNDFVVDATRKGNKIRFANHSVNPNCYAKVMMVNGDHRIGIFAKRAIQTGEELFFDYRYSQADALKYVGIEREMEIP
Sequence of wild type PRC2 (wtPRC2) complex (Q15022 whole entry partner): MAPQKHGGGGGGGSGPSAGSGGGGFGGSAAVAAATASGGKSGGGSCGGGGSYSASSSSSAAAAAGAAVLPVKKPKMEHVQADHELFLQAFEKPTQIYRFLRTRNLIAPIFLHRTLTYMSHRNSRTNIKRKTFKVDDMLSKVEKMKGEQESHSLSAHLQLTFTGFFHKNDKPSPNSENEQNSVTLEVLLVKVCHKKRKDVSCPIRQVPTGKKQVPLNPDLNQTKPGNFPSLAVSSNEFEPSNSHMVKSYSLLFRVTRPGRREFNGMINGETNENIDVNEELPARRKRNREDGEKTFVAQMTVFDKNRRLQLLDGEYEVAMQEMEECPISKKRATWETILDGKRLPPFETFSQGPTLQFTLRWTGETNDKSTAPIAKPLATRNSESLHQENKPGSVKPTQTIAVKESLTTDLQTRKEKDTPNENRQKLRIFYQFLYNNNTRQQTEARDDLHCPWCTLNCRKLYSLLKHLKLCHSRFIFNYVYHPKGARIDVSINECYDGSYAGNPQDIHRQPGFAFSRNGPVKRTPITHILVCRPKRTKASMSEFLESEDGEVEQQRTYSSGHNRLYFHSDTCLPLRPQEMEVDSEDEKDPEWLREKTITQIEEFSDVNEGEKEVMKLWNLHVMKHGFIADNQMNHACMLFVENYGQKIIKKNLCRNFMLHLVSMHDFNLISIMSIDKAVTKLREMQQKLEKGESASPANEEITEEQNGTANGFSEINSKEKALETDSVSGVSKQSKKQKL
Sequence of wild type PRC2 (wtPRC2) complex (Q09028 whole entry partner): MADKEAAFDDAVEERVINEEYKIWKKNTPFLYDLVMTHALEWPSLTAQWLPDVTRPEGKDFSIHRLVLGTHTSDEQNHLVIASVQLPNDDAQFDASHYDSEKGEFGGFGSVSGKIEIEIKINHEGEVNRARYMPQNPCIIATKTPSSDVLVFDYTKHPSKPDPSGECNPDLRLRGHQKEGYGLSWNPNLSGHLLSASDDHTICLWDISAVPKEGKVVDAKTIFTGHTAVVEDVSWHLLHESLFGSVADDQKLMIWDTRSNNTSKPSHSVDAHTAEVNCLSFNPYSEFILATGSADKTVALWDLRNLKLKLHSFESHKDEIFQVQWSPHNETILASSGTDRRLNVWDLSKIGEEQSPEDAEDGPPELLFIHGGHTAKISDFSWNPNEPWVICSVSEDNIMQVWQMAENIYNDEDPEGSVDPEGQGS
Sequence of wild type PRC2 (wtPRC2) complex (Q6ZN18 whole entry partner): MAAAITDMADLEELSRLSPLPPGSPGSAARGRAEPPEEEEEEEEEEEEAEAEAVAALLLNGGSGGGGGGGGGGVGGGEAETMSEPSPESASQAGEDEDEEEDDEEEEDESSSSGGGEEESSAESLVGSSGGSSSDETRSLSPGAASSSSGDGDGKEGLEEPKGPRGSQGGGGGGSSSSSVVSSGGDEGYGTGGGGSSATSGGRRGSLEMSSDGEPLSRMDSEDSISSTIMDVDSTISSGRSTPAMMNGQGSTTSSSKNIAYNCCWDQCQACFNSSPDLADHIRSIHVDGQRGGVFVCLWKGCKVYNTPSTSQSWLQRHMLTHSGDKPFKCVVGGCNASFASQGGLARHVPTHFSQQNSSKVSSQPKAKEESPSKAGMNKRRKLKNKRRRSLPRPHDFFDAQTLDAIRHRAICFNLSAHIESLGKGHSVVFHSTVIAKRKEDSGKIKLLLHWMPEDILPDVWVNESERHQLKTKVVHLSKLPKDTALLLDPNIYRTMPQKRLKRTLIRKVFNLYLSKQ

For the compound `COc1cccc(F)c1CNc1ccc(-c2cccnc2C(F)F)c2nncn12` [Example 265, 8-(2-(difluoromethyl)pyridin-3-yl)-N-(2-fluoro-6-methoxybenzyl)-[1,2,4] triazolo[4,3-a]pyridin-5-amine], the IC50 amounted to 0.0141 µM in test [1], 0.0063 µM in test [2] and 0.0071 µM in test [3].

As to `COc1cccc(F)c1CNc1ccc(-c2ccc(N3CCOCC3)nc2C)c2nncn12` [Example 266, N-(2-fluoro-6-methoxybenzyl)-8-(2-methyl-6-morpholinopyridin-3-yl)-[1,2,4]triazolo[4,3-a]pyridin-5-amine], the IC50 in test [1] was 0.0089 µM; in test [2], 0.0562 µM; in test [3], 0.0099 µM.

For `COc1cccc(F)c1CNc1ccc(-c2cnc(Cl)cc2C)c2nncn12` [Example 267, 8-(6-chloro-4-methylpyridin-3-yl)-N-(2-fluoro-6-methoxybenzyl)-[1,2,4]triazolo[4,3-a] pyridin-5-amine], the IC50 in test [1] was found to be 0.017 µM; in test [2], 0.0758 µM; in test [3], 0.0146 µM.

For `COc1cccc(F)c1CNc1ccc(-c2cnc(C)cc2C)c2nncn12` [Example 268, 8-(4,6-dimethylpyridin-3-yl)-N-(2-fluoro-6-methoxybenzyl)-[1,2,4]triazolo[4,3-a] pyridin-5-amine], the IC50 is 0.0194 µM in test [1], 0.034 µM in test [2] and 0.0214 µM in test [3].

In the case of `COc1cccc(F)c1CNc1ccc(-c2ccc(C(=O)N(C)C)nc2C)c2nncn12` [Example 269, 5-(5-((2-fluoro-6-methoxybenzyl)amino)-[1,2,4]triazolo[4,3-a]pyridin-8-yl)-N,N,6-trimethylpicolinamide], the IC50 in test [1] was found to be 0.0089 µM; in test [2] it was 0.0601 µM; in test [3], 0.0048 µM.

Turning to `COc1cccc(F)c1CNc1ccc(-c2cnc(C3CC3)cc2C)c2nncn12` [Example 270, 8-(6-cyclopropyl-4-methylpyridin-3-yl)-N-(2-fluoro-6-methoxybenzyl)-[1,2,4]triazolo[4,3-a]pyridin-5-amine], the concentration for half-maximal inhibition (IC50) in test [1] worked out at 0.0273 µM; in test [2], 0.106 µM; in test [3], 0.0423 µM.

In the case of `CCc1cc(S(C)(=O)=O)ccc1-c1ccc(NCc2c(F)cccc2OC)n2cnnc12` [Example 271, 8-(2-ethyl-4-(methylsulfonyl)phenyl)-N-(2-fluoro-6-methoxybenzyl)-[1,2,4]triazolo[4,3-a]pyridin-5-amine], the IC50 in test [1] turned out to be 0.0332 µM; in test [2], 0.0803 µM; in test [3] it was 0.03 µM.

For the compound `CCc1ccncc1-c1ccc(NCc2c(F)cccc2OC)n2cnnc12` [Example 272, 8-(4-ethylpyridin-3-yl)-N-(2-fluoro-6-methoxybenzyl)-[1,2,4]triazolo[4,3-a]pyridin-5-amine], the IC50 stood at 0.0347 µM in test [1], 0.0575 µM in test [2] and 0.0618 µM in test [3].

Consider `COc1cccc(F)c1CNc1ccc(-c2cncnc2C(C)C)c2nncn12` [Example 273, N-(2-fluoro-6-methoxybenzyl)-8-(4-isopropylpyrimidin-5-yl)-[1,2,4] triazolo[4,3-a]pyridin-5-amine], for which the IC50 in test [1] amounted to 0.069 µM; in test [2], 0.0997 µM; in test [3], 0.0613 µM.

On to `COc1cccc(F)c1CNc1ccc(-c2c(C)nn(CC(C)O)c2C)c2nncn12` (stereo not drawn) [Example 274, 1-(4-(5-((2-fluoro-6-methoxybenzyl)amino)-[1,2,4]triazolo[4,3-a]pyridin-8-yl)-3,5-dimethyl-1H-pyrazol-1-yl)propan-2-ol], for which the results for the IC50 in test [1], in test [2] and in test [3] were 0.0146 µM, 0.0253 µM and 0.0154 µM, respectively.

As for `COc1cccc(F)c1CNc1ccc(-c2c(C)nn(C3CC3)c2C)c2nncn12` [Example 275, 8-(1-cyclopropyl-3,5-dimethyl-1H-pyrazol-4-yl)-N-(2-fluoro-6-methoxybenzyl)-[1,2,4]triazolo[4,3-a] pyridin-5-amine], the IC50 stood at 0.0233 µM in test [1], 0.0718 µM in test [2] and 0.0216 µM in test [3].

Regarding `COc1cccc(F)c1CNc1ccc(-c2ccnc(F)c2C)c2nncn12` [Example 276, 8-(2-fluoro-3-methylpyridin-4-yl)-N-(2-fluoro-6-methoxybenzyl)-[1,2,4]triazolo[4,3-a] pyridin-5-amine], the IC50 in test [1] was found to be 0.0139 µM; in test [2] it was 0.0505 µM; in test [3], 0.008 µM.

Consider `COc1cccc(F)c1CNc1ccc(-c2ccnc(C(F)F)c2C)c2nncn12` [Example 277, 8-(2-(difluoromethyl)-3-methylpyridin-4-yl)-N-(2-fluoro-6-methoxybenzyl)-[1,2,4]triazolo[4,3-a]pyridin-5-amine], for which the IC50 in test [1] is 0.0142 µM; in test [2] it was 0.0322 µM; in test [3], 0.012 µM.

With `COc1cccc(F)c1CNc1ccc(-c2ccnc(CF)c2C)c2nncn12` [Example 278, N-(2-fluoro-6-methoxybenzyl)-8-(2-(fluoromethyl)-3-methylpyridin-4-yl)-[1,2,4] triazolo[4,3-a]pyridin-5-amine], the IC50 worked out at 0.011 µM in test [1], 0.027 µM in test [2] and 0.0064 µM in test [3].

On to `COc1cccc(F)c1CNc1ccc(-c2cc(F)ncc2C)c2nncn12` [Example 279, 8-(2-fluoro-5-methylpyridin-4-yl)-N-(2-fluoro-6-methoxybenzyl)-[1,2,4] triazolo[4,3-a]pyridin-5-amine], for which the IC50 in test [1] amounted to 0.0158 µM; in test [2] it was 0.0751 µM; in test [3], 0.0121 µM.

With `CCc1ncncc1-c1ccc(NCc2c(F)cccc2OC)n2cnnc12` [Example 280, 8-(4-ethylpyrimidin-5-yl)-N-(2-fluoro-6-methoxybenzyl)-[1,2,4]triazolo[4,3-a]pyridin-5-amine], the IC50 in test [1] amounted to 0.0237 µM; in test [2] it was 0.317 µM; in test [3], 0.0118 µM.

On to `COc1cccc(F)c1CNc1ccc(-c2cc(C(F)(F)F)ncc2C)c2nncn12` [Example 281, N-(2-fluoro-6-methoxybenzyl)-8-(5-methyl-2-(trifluoromethyl)pyridin-4-yl)-[1,2,4]triazolo[4,3-a] pyridin-5-amine], for which the IC50 in test [1] was determined as 0.023 µM; in test [2] it was 0.124 µM; in test [3], 0.0169 µM.

As for `COc1cccc(F)c1CNc1ccc(-c2cn(C(C)C)nc2C)c2nncn12` [Example 282, N-(2-fluoro-6-methoxybenzyl)-8-(1-isopropyl-3-methyl-1H-pyrazol-4-yl)-[1,2,4]triazolo[4,3-a]pyridin-5-amine], the IC50 in test [1] was 0.0107 µM; in test [2], 0.0157 µM; in test [3], 0.0081 µM.

On to `CCc1ncccc1-c1ccc(NCc2c(F)cccc2OC)n2cnnc12` [Example 283, 8-(2-ethylpyridin-3-yl)-N-(2-fluoro-6-methoxybenzyl)-[1,2,4]triazolo[4,3-a]pyridin-5-amine], for which the values for the IC50 in test [1], in test [2] and in test [3] were 0.0396 µM, 0.576 µM and 0.0621 µM, respectively.

As for `COc1cccc(F)c1CNc1ccc(-c2cnc(C3CC3)nc2C)c2nncn12` [Example 284, 8-(2-cyclopropyl-4-methylpyrimidin-5-yl)-N-(2-fluoro-6-methoxybenzyl)-[1,2,4] triazolo[4,3-a]pyridin-5-amine], the values for the 50% inhibitory concentration (IC50) in test [1], in test [2] and in test [3] were 0.0096 µM, 0.0444 µM and 0.0105 µM, respectively.

`COc1cccc(F)c1CNc1ccc(-c2ccnc(C)c2C)c2nncn12` [Example 287, 8-(2,3-dimethylpyridin-4-yl)-N-(2-fluoro-6-methoxybenzyl)-[1,2,4]triazolo[4,3-a] pyridin-5-amine]: the IC50 in test [1] was found to be 0.0101 µM; in test [2] it was 0.0386 µM; in test [3] it was 0.0066 µM.

With `COc1cccc(F)c1CNc1ccc(-c2cc(C)nn2C)c2nncn12` [Example 288, 8-(1,3-dimethyl-1H-pyrazol-5-yl)-N-(2-fluoro-6-methoxybenzyl)-[1,2,4]triazolo[4,3-a] pyridin-5-amine], the figures for the IC50 in test [1], in test [2] and in test [3] were 0.0127 µM, 0.0234 µM and 0.0063 µM, respectively.

In the case of `COc1cccc(F)c1CNc1ccc(-c2cnn(C(C)C)c2C)c2nncn12` [Example 289, N-(2-fluoro-6-methoxybenzyl)-8-(1-isopropyl-5-methyl-1H-pyrazol-4-yl)-[1,2,4] triazolo[4,3-a]pyridin-5-amine], the IC50 came to 0.0284 µM in test [1], 0.129 µM in test [2] and 0.0303 µM in test [3].

As for `COc1cccc(F)c1CNc1ccc(-c2cncnc2C(F)F)c2nncn12` [Example 290, 8-(4-(difluoromethyl)pyrimidin-5-yl)-N-(2-fluoro-6-methoxybenzyl)-[1,2,4] triazolo[4,3-a]pyridin-5-amine], the half-inhibitory concentration (IC50) in test [1] amounted to 0.0307 µM; in test [2], 0.0332 µM; in test [3], 0.004 µM.

Take `COc1cccc(F)c1CNc1ccc(-c2ccnn2C2CC2)c2nncn12` [Example 292, 8-(1-cyclopropyl-1H-pyrazol-5-yl)-N-(2-fluoro-6-methoxybenzyl)-[1,2,4] triazolo[4,3-a]pyridin-5-amine]: the IC50 worked out at 0.029 µM in test [1], 0.195 µM in test [2] and 0.0114 µM in test [3].
